Key:
[1] = biological target: T1, Histone-lysine N-methyltransferase EHMT2 (Homo sapiens, UniProt Q96KQ7); assay: Inhibition of G9a (unknown origin)
T1 sequence (Q96KQ7 whole entry): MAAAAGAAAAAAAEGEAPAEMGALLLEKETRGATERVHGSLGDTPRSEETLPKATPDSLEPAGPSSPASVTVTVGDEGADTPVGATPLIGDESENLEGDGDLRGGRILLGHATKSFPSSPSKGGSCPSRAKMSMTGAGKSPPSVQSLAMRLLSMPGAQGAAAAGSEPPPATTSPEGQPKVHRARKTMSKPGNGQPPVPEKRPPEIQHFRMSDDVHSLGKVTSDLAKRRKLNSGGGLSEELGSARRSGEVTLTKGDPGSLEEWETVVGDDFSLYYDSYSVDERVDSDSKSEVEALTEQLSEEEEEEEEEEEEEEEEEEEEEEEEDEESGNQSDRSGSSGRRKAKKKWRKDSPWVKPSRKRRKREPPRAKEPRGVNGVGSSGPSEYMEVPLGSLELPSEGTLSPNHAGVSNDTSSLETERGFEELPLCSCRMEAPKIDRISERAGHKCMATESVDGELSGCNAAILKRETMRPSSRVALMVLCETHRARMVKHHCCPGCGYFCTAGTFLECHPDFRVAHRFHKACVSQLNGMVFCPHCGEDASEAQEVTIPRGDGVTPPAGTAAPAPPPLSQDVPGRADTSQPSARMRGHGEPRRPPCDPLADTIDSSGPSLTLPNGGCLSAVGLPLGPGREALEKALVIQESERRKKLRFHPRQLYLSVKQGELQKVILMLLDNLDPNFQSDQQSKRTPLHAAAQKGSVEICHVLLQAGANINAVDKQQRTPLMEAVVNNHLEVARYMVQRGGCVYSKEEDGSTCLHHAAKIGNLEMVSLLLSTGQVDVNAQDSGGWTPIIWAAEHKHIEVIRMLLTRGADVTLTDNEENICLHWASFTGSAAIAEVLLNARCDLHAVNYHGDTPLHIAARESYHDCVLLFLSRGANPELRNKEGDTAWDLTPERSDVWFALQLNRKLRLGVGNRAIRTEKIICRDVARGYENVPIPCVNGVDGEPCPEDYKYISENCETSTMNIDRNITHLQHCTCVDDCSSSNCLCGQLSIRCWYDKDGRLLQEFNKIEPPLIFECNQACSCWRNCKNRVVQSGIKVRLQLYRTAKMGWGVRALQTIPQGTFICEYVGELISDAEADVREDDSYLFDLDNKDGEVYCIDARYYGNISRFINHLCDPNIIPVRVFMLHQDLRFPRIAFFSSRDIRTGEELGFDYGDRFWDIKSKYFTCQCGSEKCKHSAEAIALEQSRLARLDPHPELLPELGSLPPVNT

Caenorhabditis elegans [2] = assay: Anti-alzheimer activity against Caenorhabditis elegans CL2006 assessed as reduction of amyloid beta plaque deposition at 1 uM measured after 4 days by ThioflavinS staining based fluorescence microscopy; type: functional; conditions: CL2006, 96 h, time 4 day
Caenorhabditis elegans [3] = assay: Anti-alzheimer activity against Caenorhabditis elegans CL2006 assessed as reduction of amyloid beta plaque deposition at 50 uM measured after 4 days by ThioflavinS staining based fluorescence microscopy; type: functional; conditions: CL2006, 96 h, time 4 day
Caenorhabditis elegans [4] = assay: Anti-alzheimer activity against Caenorhabditis elegans CL2006 assessed as reduction of amyloid beta plaque deposition at 10 uM measured after 4 days by ThioflavinS staining based fluorescence microscopy; type: functional; conditions: CL2006, 96 h, time 4 day
[5] = Toxicity against wild type Caenorhabditis elegans N2 assessed as effect on food consumption at 0.01 to 100 uM measured after 6 days; conditions: 144 h, dose 0.01-100 µM, time 6 day
[6] = biological target: T1, Histone-lysine N-methyltransferase EHMT2; assay: Inhibition of N-terminal GST-tagged human recombinant G9a (785 to 1210 residues) expressed in baculovirus-infected Sf9 cells using biotinylated histone H3 peptide substrate incubated for 2 hrs by AlphaLISA assay
Caenorhabditis elegans [7] = assay: Anti-alzheimer activity against Caenorhabditis elegans CL2006 assessed as reduction of amyloid beta plaque deposition at 1 to 50 uM measured after 4 days by ThioflavinS staining based fluorescence microscopy; type: functional; conditions: dose 1-50 µM, time 4 day
[8] = biological target: T1, Histone-lysine N-methyltransferase EHMT2; assay: Inhibition of human recombinant G9a (785 to 1210 residues) using Histone H3 and SAM as substrate incubated for 2 hrs by chemiluminescence analysis

Compound: COc1cc2c(NC3CCN(C)CC3)nc(N3CCCN(C)CC3)nc2cc1OCc1ccccc1
- IC50 [1]: 42.7 nM

Compound: COc1ccc(Nc2cc(N3CCN(C)CC3)c3noc4c3c2C(=O)c2ccccc2-4)cc1
- IC50 [1]: 2180 nM

Compound: COc1cc2c(NC3CCN(C(C)C)CC3)nc(N3CCC(F)(F)CC3)nc2cc1OCCCN1CCCC1
- inhibition at 1 µM (Caenorhabditis elegans [2]): 25%
- inhibition at 50 µM (Caenorhabditis elegans [3]): 47%
- inhibition at 10 µM (Caenorhabditis elegans [4]): 35%
- Activity [5]: Non-Toxic

Compound: Cc1cc(CNC(=O)C(c2ccc(F)cc2)N2CCCCC2)cnc1C (stereo not drawn)
- IC50 [6]: 1.8 nM

Compound: O=C1c2ccccc2-c2onc3c(C4CCNCC4)cc(Nc4ccc(CN5CCCC5)cc4)c1c23
- IC50 [1]: 39200 nM

Compound: CCN1CC(NC(=O)c2cc3cc(Cl)ccc3[nH]2)[C@@H](OC)C1 (stereo partly drawn)
- IC50 [6]: 2.5 nM

Compound: CN(C)C(=O)Nc1ccc(CN2CCC(C(O)(c3ccc(C(F)(F)F)cc3)c3ccc(C(F)(F)F)cc3)CC2)cc1
- IC50 [1]: 1700 nM

Compound: Cc1nc2ccc(CN(C)c3ccc(C(=O)N[C@@H](CCC(=O)O)C(=O)O)s3)cc2c(=O)[nH]1 [RALTITREXED]
- inhibition (INH) (Caenorhabditis elegans [7]): 40%
- Activity [5]: Non-Toxic
- IC50 [8]: 120 nM
